In patent publication US12552795B2, “Pyrrolotriazine derivatives for treating kit-and PDGFRA-mediated diseases” (Blueprint Medicines Corporation, priority 2019, dated 2026):

Assays:
[1] = Brain penetration in rats, 24 h IV infusion, brain to plasma ratios; type: in vivo, Sprague-Dawley rats
Description: To understand the brain penetration, brain to plasma ratios of the compounds were obtained in Sprague-Dawley (SD) rats. In vivo equilibrium distribution between blood and brain in preclinical species such as rats is a commonly used parameter to evaluate brain penetration. Kp,brain is the ratio of concentrations in brain and blood (Cbrain/Cplasma). The compound's passive diffusion characteristics, its affinity for membrane transporters at the blood-brain barrier (BBB), and the relative drug binding affinity differences between the plasma proteins and brain tissue influence the Kp,brain.
The animals received IV infusion of 1 mg/kg/hr of the compound over 24 hours via jugular vein cannulation. At 24 hours, blood was collected via tail vein bleeding or cardiac puncture (under anesthesia) and centrifuged to obtain plasma samples. Brain tissues were collected and homogenized with phosphate-buffered saline (PBS). The concentrations of the compounds were obtained in the plasma and brain homogenates by LC-MS/MS analysis.

PDGFRα D842V = PDGFRα D842V (Homo sapiens (Human), UniProt P16234, D842V); assay: PDGFRα D842V biochemical enzymatic activity assay (EZReader 2 mobility shift); conditions: ATP at APPKM (25 μM), 90 minutes
Description: PDGFRα and KIT enzymatic activity was monitored using the Perkin Elmer electrophoretic mobility shift technology platform, the EZReader 2.
Within the linear, steady-state phase of the kinase enzymatic reaction, the mixed pool of phosphorylated (product) and non-phosphorylated (substrate) peptides was passed through the microfluidic system of the PerkinElmer EZ Reader 2, under an applied electric potential difference. The presence of the phosphate group on the product peptide provided a difference in mass and charge between that of the substrate peptide, resulting in a separation of the substrate and product pools in the sample (Perrin et al., Expert Opin Drug Discovery 2010, January 5(1):51-63).
As the product and substrate peptide mixture passes the lasers within the instrument, these pools are detected (λex=488 nm, λem=568 nm) and resolved as separate peaks. The ratio between these peaks reflects the activity of the compound at that concentration, in that well, under those conditions.
Inhibition of KIT (D816V) PDGFRα (D842V) Mutant Biochemical Enzymatic Activity
All test articles were dissolved in 100% DMSO at a stock concentration of 10 mM. A 100×, 10-point, 4-fold serial dilution of all test compounds was created in 100% DMSO, starting at a relevant concentration, usually 1 mM. A volume of 0.130 μL of each concentration was transferred to the relevant well of a 384-well assay plate (Greiner 781 201) using a TTPLabtech Mosquito nano-liter dispenser. Using the Multidrop, the remaining constituents of the reaction were then added to the 0.130 μL of compound as follows:
The reaction was stopped by the addition of 70 μl of Stop buffer (100 mM HEPES pH 7.5, 0.015% Brij 35, 35 mM EDTA and 0.2% of Coating Reagent 3, Caliper Lifesciences). The plate was read on a Caliper EZReader 2.

Chain of PDGFRα D842V (P16234 24-1089 D842V): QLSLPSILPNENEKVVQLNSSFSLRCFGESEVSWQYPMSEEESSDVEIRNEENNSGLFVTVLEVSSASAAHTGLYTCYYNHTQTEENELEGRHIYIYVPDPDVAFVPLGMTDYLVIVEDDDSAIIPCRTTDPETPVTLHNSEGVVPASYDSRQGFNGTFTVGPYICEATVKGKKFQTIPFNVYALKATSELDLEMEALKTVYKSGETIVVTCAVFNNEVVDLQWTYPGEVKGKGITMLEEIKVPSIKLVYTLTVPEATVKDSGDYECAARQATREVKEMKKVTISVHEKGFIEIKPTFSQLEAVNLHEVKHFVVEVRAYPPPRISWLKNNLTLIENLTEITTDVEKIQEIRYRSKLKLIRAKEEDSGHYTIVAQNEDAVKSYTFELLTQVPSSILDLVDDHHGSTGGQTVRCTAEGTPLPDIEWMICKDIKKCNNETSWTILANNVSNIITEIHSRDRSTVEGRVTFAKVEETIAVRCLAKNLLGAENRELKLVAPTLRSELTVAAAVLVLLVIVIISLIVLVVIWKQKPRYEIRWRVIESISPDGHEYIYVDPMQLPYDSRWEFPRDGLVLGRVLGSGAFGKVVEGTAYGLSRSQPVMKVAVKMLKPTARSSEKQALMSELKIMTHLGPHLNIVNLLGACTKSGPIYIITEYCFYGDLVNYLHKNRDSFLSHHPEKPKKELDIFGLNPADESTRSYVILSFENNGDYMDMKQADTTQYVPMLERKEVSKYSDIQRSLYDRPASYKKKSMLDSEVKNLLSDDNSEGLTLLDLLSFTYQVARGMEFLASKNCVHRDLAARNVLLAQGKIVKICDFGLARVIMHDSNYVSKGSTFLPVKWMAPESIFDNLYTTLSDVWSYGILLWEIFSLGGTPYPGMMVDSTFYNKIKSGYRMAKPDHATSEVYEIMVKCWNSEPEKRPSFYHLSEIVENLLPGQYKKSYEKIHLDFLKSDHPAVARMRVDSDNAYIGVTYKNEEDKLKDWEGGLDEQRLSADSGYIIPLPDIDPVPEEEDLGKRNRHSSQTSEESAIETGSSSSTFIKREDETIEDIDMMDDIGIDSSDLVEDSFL

| IC50 (PDGFRα D842V) [nM] | Structure (SMILES) | other results |
| --- | --- | --- |
| – | C[C@](N)(c1ccc(F)cc1)c1cnc(N2CCN(c3ncnn4cc(-c5cnn([C@H]6C[C@@H](O)C6)c5)cc34)CC2)nc1 [Compound 10, cis-3-(4-(4-(4-(5-((S)-1-Amino-1-(4-fluorophenyl)ethyl)pyrimidin-2-yl)piperazin-1-yl)pyrrolo[2,1-f][1,2,4]triazin-6-yl)-1H-pyrazol-1-yl)cyclobutanol] | Rat Kp ([1]; rat, methods of Example 4): < 0.39 |
| < 0.3 | C[C@@H](O)Cn1cc(-c2cc3c(N4CCN(c5ncc([C@@](C)(N)c6ccc(F)cc6)cn5)CC4)ncnn3c2)cn1 [Compound 3, (R)1-{4-[4-(4-{5-[(S)-1-Amino-1-(4-fluoro-phenyl)-ethyl]-pyrimidin-2-yl}-piperazin-1-yl)-pyrrolo[2,1-f][1,2,4]triazin-6-yl]-pyrazol-1-yl}-propan-2-ol] | – |
| < 0.3 | C[C@H](CO)n1cc(-c2cc3c(N4CCN(c5ncc([C@@](C)(N)c6ccc(F)cc6)cn5)CC4)ncnn3c2)cn1 [Compound 5, (R)-2-(4-(4-(4-(5-((S)-1-Amino-1-(4-fluorophenyl)ethyl)pyrimidin-2-yl)piperazin-1-yl)pyrrolo[2,1-f][1,2,4]triazin-6-yl)-1H-pyrazol-1-yl)propan-1-ol] | – |
| < 0.3 | CC(C)(O)Cn1cc(-c2cc3c(N4CCN(c5ncc([C@@](C)(N)c6ccc(F)cc6)cn5)CC4)ncnn3c2)cn1 [Compound 1, (S)-1-(4-(4-(4-(5-(1-Amino-1-(4-fluorophenyl)ethyl)pyrimidin-2-yl)piperazin-1-yl)pyrrolo[2,1-f][1,2,4]triazin-6-yl)-1H-pyrazol-1-yl)-2-methylpropan-2-ol] | – |
| < 0.3 | CC(C)(CO)n1cc(-c2cc3c(N4CCN(c5ncc([C@@](C)(N)c6ccc(F)cc6)cn5)CC4)ncnn3c2)cn1 [Compound 2, (S)-2-(4-(4-(4-(5-(1-amino-1-(4-fluorophenyl)ethyl)pyrimidin-2-yl)piperazin-1-yl)pyrrolo[2,1-f][1,2,4]triazin-6-yl)-1H-pyrazol-1-yl)-2-methylpropan-1-ol] | – |
| < 0.3 | C[C@](N)(c1ccc(F)cc1)c1cnc(N2CCN(c3ncnn4cc(-c5cnn(CCO)c5)cc34)CC2)nc1 [Compound 4, (S)-2-(4-(4-(4-(5-(1-Amino-1-(4-fluorophenyl)ethyl)pyrimidin-2-yl)piperazin-1-yl)pyrrolo[2,1-f][1,2,4]triazin-6-yl)-1H-pyrazol-1-yl)ethanol] | – |
| < 0.3 | C[C@@H](CO)n1cc(-c2cc3c(N4CCN(c5ncc([C@@](C)(N)c6ccc(F)cc6)cn5)CC4)ncnn3c2)cn1 [Compound 6, (S)-2-(4-(4-(4-(5-((S)-1-amino-1-(4-fluorophenyl)ethyl)pyrimidin-2-yl)piperazin-1-yl)pyrrolo[2,1-f][1,2,4]triazin-6-yl)-1H-pyrazol-1-yl)propan-1-ol] | – |
| – | CCn1cc(-c2cc3c(N4CCN(c5ncc([C@@](C)(N)c6ccc(F)cc6)cn5)CC4)ncnn3c2)cn1 [Compound 63, reference compound] | Kp, brain ([1]; Mean of 3 rats, IV infusion 1 mg/kg/hr over 24 hours): 1.75 |
